Source: PubChem BioAssay AID190 (DTP/NCI, 2004)
Several values for one entry are separate records, joined by “and”; a condition that tells them apart may be missing. Equal values may be shown once. Toxic doses and inconclusive results are not listed.

Test system: AKR/Lw mice, AKR lymphoma ip, median survival T/C
Assay: NCI In Vivo Anticancer Drug Screen. Data for tumor model Lymphoma AKR (Transplanted) (intraperitoneal) in AKR/Lw mice
Conditions: endpoint: median survival time, higher = longer survival
Protocol: The antitumor activity of compounds was measured in mice bearing transplantable tumors. Survival or tumor size were measured and the results are expressed as the measurement made in the treated group (T) divided by the measurement made in the vehicle treated control group (C). The tumor model used in this assay is Lymphoma AKR (Transplanted) (intraperitoneal) in AKR/Lw mice

[1] = dose: 100.0 mg/kg/injection, schedule: Q01DX001 (ip), vehicle: Klucel (hydroxypropylcellulose) (HPC)
[2] = dose: 200.0 mg/kg/injection, schedule: Q01DX001 (ip), vehicle: Klucel (hydroxypropylcellulose) (HPC)
[3] = dose: 400.0 mg/kg/injection, schedule: Q01DX001 (ip), vehicle: Klucel (hydroxypropylcellulose) (HPC)
[4] = dose: 25.0 mg/kg/injection, schedule: Q01DX001 (ip), vehicle: saline

## ClC1=C(Cl)C2(Cl)C3COCC3C1(Cl)C2(Cl)Cl (stereo not given)
[1]
  T/C: 100 % of control
[2]
  T/C: 93 % of control
[3]
  T/C: 91 % of control

## OCC1C(CO)C2(Cl)C(Cl)=C(Cl)C1(Cl)C2(Cl)Cl (stereo not given)
[1]
  T/C: 100 % of control
[2]
  T/C: 93 % of control
[3]
  T/C: 91 % of control

## NC(CSC(c1ccccc1)(c1ccccc1)c1ccc(CO)cc1)C(=O)O (stereo not given)
[1]
  T/C: 100 % of control
[2]
  T/C: 94 % of control
[3]
  T/C: 110 % of control

## CC(=O)OCC(=O)[C@@]1(O)CC[C@H]2[C@@H]3C[C@H](F)C4=CC(=O)CC[C@]4(C)[C@H]3C(=O)C[C@@]21C
dose: 50.0 mg/kg/injection, schedule: Q04DX003 (ip), vehicle: saline with Tween-80
  T/C: 103 % of control
dose: 100.0 mg/kg/injection, schedule: Q01DX001 (ip), vehicle: saline with Tween-80
  T/C: 90 % of control
dose: 200.0 mg/kg/injection, schedule: Q01DX001 (ip), vehicle: saline with Tween-80
  T/C: 111 % of control

## S=c1[nH]nc(NC2CCCCC2)s1
[1]
  T/C: 100 % of control
dose: 100.0 mg/kg/injection, schedule: Q04DX003 (ip), vehicle: Klucel (hydroxypropylcellulose) (HPC)
  T/C: 100 % of control
[2]
  T/C: 90 % of control
dose: 200.0 mg/kg/injection, schedule: Q04DX003 (ip), vehicle: Klucel (hydroxypropylcellulose) (HPC)
  T/C: 90 % of control
[3]
  T/C: 87 % of control

## CN(C)C(=O)c1cccc(COc2ccc(N3C(N)=NC(N)=NC3(C)C)cc2Cl)c1
dose: 0.25 mg/kg/injection, schedule: Q04DX003 (ip), vehicle: saline
  T/C: 105 % of control
dose: 0.5 mg/kg/injection, schedule: Q04DX003 (ip), vehicle: saline
  T/C: 108 % of control
dose: 1.0 mg/kg/injection, schedule: Q04DX003 (ip), vehicle: saline
  T/C: 97 % of control
dose: 1.2 mg/kg/injection, schedule: Q01DX009 (ip), vehicle: saline
  T/C: 100 % of control
dose: 1.25 mg/kg/injection, schedule: Q01DX009 (ip), vehicle: saline
  T/C: 106 % of control
dose: 2.0 mg/kg/injection, schedule: Q04DX003 (ip), vehicle: saline
  T/C: 114 % of control
dose: 3.1 mg/kg/injection, schedule: Q01DX009 (ip), vehicle: saline
  T/C: 100 % of control
dose: 4.0 mg/kg/injection, schedule: Q04DX003 (ip), vehicle: saline
  T/C: 114 % of control
dose: 6.2 mg/kg/injection, schedule: Q01DX009 (ip), vehicle: saline
  T/C: 94 % of control and 97 % of control and 108 % of control
dose: 8.0 mg/kg/injection, schedule: Q04DX003 (ip), vehicle: water
  T/C: 100 % of control
dose: 10.0 mg/kg/injection, schedule: Q04DX003 (ip), vehicle: saline
  T/C: 105 % of control
dose: 12.0 mg/kg/injection, schedule: Q01DX001 (ip), vehicle: saline
  T/C: 112 % of control
dose: 15.0 mg/kg/injection, schedule: Q01DX009 (ip), vehicle: saline
  T/C: 112 % of control
dose: 16.0 mg/kg/injection, schedule: Q04DX003 (ip), vehicle: water
  T/C: 109 % of control
dose: 18.0 mg/kg/injection, schedule: Q04DX003 (ip), vehicle: saline
  T/C: 109 % of control
[4]
  T/C: 112 % of control
dose: 32.0 mg/kg/injection, schedule: Q04DX003 (ip), vehicle: water
  T/C: 120 % of control
dose: 35.0 mg/kg/injection, schedule: Q04DX003 (ip), vehicle: saline
  T/C: 116 % of control and 120 % of control
dose: 37.5 mg/kg/injection, schedule: Q04DX003 (ip), vehicle: saline
  T/C: 116 % of control
dose: 64.0 mg/kg/injection, schedule: Q04DX003 (ip), vehicle: water
  T/C: 105 % of control

## CC[C@](O)(C(=O)O)c1cc2n(c(=O)c1CO)Cc1cc3ccccc3nc1-2
dose: 0.02 mg/kg/injection, schedule: Q01DX009 (ip), vehicle: saline
  T/C: 94 % of control
dose: 0.05 mg/kg/injection, schedule: Q01DX009 (ip), vehicle: saline
  T/C: 105 % of control
dose: 0.06 mg/kg/injection, schedule: Q01DX009 (ip), vehicle: saline
  T/C: 106 % of control
dose: 0.1 mg/kg/injection, schedule: Q01DX009 (ip), vehicle: saline
  T/C: 100 % of control and 103 % of control
dose: 0.12 mg/kg/injection, schedule: Q01DX009 (ip), vehicle: saline
  T/C: 100 % of control and 114 % of control
dose: 0.15 mg/kg/injection, schedule: Q01DX009 (ip), vehicle: saline
  T/C: 106 % of control
dose: 0.35 mg/kg/injection, schedule: Q01DX009 (ip), vehicle: saline
  T/C: 106 % of control
dose: 0.37 mg/kg/injection, schedule: Q01DX009 (ip), vehicle: saline
  T/C: 101 % of control
dose: 0.4 mg/kg/injection, schedule: Q01DX009 (ip), vehicle: saline
  T/C: 118 % of control
dose: 0.6 mg/kg/injection, schedule: Q01DX009 (ip), vehicle: saline
  T/C: 96 % of control
dose: 0.6 mg/kg/injection, schedule: Q04DX003 (ip), vehicle: saline
  T/C: 88 % of control
dose: 0.75 mg/kg/injection, schedule: Q01DX009 (ip), vehicle: saline
  T/C: 117 % of control
dose: 1.2 mg/kg/injection, schedule: Q04DX003 (ip), vehicle: saline
  T/C: 97 % of control and 104 % of control
dose: 1.25 mg/kg/injection, schedule: Q01DX001 (ip), vehicle: saline
  T/C: 121 % of control
dose: 2.5 mg/kg/injection, schedule: Q01DX001 (ip), vehicle: saline
  T/C: 107 % of control
dose: 2.5 mg/kg/injection, schedule: Q01DX009 (ip), vehicle: saline
  T/C: 88 % of control and 113 % of control
dose: 3.7 mg/kg/injection, schedule: Q04DX003 (ip), vehicle: saline
  T/C: 106 % of control
dose: 5.0 mg/kg/injection, schedule: Q01DX001 (ip), vehicle: saline
  T/C: 102 % of control and 114 % of control
dose: 7.5 mg/kg/injection, schedule: Q04DX003 (ip), vehicle: saline
  T/C: 112 % of control
dose: 12.5 mg/kg/injection, schedule: Q01DX001 (ip), vehicle: saline
  T/C: 120 % of control
dose: 15.0 mg/kg/injection, schedule: Q04DX003 (ip), vehicle: saline
  T/C: 150 % of control
dose: 18.0 mg/kg/injection, schedule: Q01DX001 (ip), vehicle: saline
  T/C: 95 % of control
dose: 30.0 mg/kg/injection, schedule: Q04DX003 (ip), vehicle: saline
  T/C: 103 % of control and 115 % of control
dose: 40.0 mg/kg/injection, schedule: Q01DX001 (ip), vehicle: saline
  T/C: 113 % of control
dose: 80.0 mg/kg/injection, schedule: Q01DX001 (ip), vehicle: saline
  T/C: 97 % of control

## CCCn1c(=S)[nH]c2ccccc2c1=O
[1]
  T/C: 103 % of control
[2]
  T/C: 94 % of control
[3]
  T/C: 100 % of control

## COc1ccc2c3c(ccc2c1)C(=O)C(C)(C#N)CC3 (stereo not given)
dose: 37.5 mg/kg/injection, schedule: Q01DX001 (ip), vehicle: Klucel (hydroxypropylcellulose) (HPC)
  T/C: 92 % of control
dose: 75.0 mg/kg/injection, schedule: Q01DX001 (ip), vehicle: Klucel (hydroxypropylcellulose) (HPC)
  T/C: 94 % of control
dose: 150.0 mg/kg/injection, schedule: Q01DX001 (ip), vehicle: Klucel (hydroxypropylcellulose) (HPC)
  T/C: 100 % of control
dose: 300.0 mg/kg/injection, schedule: Q01DX001 (ip), vehicle: Klucel (hydroxypropylcellulose) (HPC)
  T/C: 107 % of control

## O=C[C@@H](CO)O[C@H](C=O)n1cnc2c(=O)[nH]cnc21
dose: 3.0 mg/kg/injection, schedule: Q01DX009 (ip), vehicle: saline
  T/C: 104 % of control and 123 % of control
dose: 6.0 mg/kg/injection, schedule: Q01DX009 (ip), vehicle: saline
  T/C: 102 % of control and 108 % of control and 121 % of control
dose: 6.2 mg/kg/injection, schedule: Q04DX003 (ip), vehicle: saline
  T/C: 102 % of control
dose: 6.25 mg/kg/injection, schedule: Q01DX009 (ip), vehicle: saline
  T/C: 112 % of control
dose: 12.0 mg/kg/injection, schedule: Q01DX009 (ip), vehicle: saline
  T/C: 100 % of control and 112 % of control
dose: 12.5 mg/kg/injection, schedule: Q01DX009 (ip), vehicle: saline
  T/C: 94 % of control and 106 % of control
dose: 12.5 mg/kg/injection, schedule: Q04DX003 (ip), vehicle: saline
  T/C: 100 % of control and 105 % of control
dose: 24.0 mg/kg/injection, schedule: Q01DX009 (ip), vehicle: saline
  T/C: 112 % of control
[4]
  T/C: 89 % of control and 105 % of control
dose: 25.0 mg/kg/injection, schedule: Q04DX003 (ip), vehicle: saline
  T/C: 87 % of control and 113 % of control
dose: 50.0 mg/kg/injection, schedule: Q01DX001 (ip), vehicle: saline
  T/C: 89 % of control
dose: 60.0 mg/kg/injection, schedule: Q04DX003 (ip), vehicle: water
  T/C: 114 % of control
dose: 75.0 mg/kg/injection, schedule: Q01DX009 (ip), vehicle: saline
  T/C: 103 % of control and 238 % of control
dose: 100.0 mg/kg/injection, schedule: Q01DX001 (ip), vehicle: saline
  T/C: 92 % of control and 97 % of control (2×)
dose: 240.02 mg/kg/injection, schedule: Q04DX003 (ip), vehicle: water
  T/C: 222 % of control
dose: 500.0 mg/kg/injection, schedule: Q01DX001 (ip), vehicle: saline
  T/C: 120 % of control
